Consider eight compounds from US20230303497A1, “BENZYLAMINE OR BENZYL ALCOHOL DERIVATIVE AND USES THEREOF” (CHENGDU HYPERWAY PHARMACEUTICALS CO., LTD, priority 2020, published 2023).

Each structure is given as a SMILES string. Like-named read-outs stand apart in the source and are kept apart here.

In one data set the target is NaV1.6 (Homo sapiens (Human), UniProt Q9UQD0). The data set is described as follows: Selectivity test for Nav ion channel subtypes: NaV1.6 (HEK293, patch clamp). The format is cell-based. As to conditions: 1 uM; HEK293 cells. As to the method:
(§1) Test Case 3: Compound Selectivity Test for Nav Ion Channel Subtypes
(§2) The aim of this test is to investigate effect of compounds on human Na ion channel cells expressed in steady-state (NaV1.1, NaV1.3, NaV1.4, NaV1.5, NaV1.6, NaV1.7). After Na ion currents is stabilized, the effect can be obtained by comparing the magnitude of Na channel currents before and after the application of the compounds.
(§3) The test compound is stored at a concentration of 9 mM in dimethyl sulfoxide (DMSO), and on the day of testing, dissolve in extracellular solution, then prepare to a screening concentration of 1 uM.
(§4) All experiments are performed at room temperature. Each cell itself is taken as the corresponding control.
(§5) At least one cell is tested per concentration.
(§6) HEK293 cells steadily expressing NaV1.1-, NaV1.3-, NaV1.4-, NaV1.5-, NaV1.6-ion channels; CHO cells expressing steadily NaV1.7 ion channel.
(§7) The intracellular fluid (mM) is: Aspartic acid, 140; MgCl2, 2; EGTA 11; HEPES, 10; pH 7.2 (CsOH titration). […] Electrodes are drawn with PC-10 (Narishige, Japan). Recording is performed with whole-cell diaphragm clamp.
(§8) Cells are clamped at −80 mV and then depolarized to −10 mV with a sustained 10 ms square wave to obtain Na ion channel currents (see the FIGURE). This process is repeated every 5 seconds. […] The strength of the block is calculated after the response is stabilized.
A general note: The patch-clamp technique gives a direct electrical read-out from membranes.

A further data set deals with NaV1.7 (Homo sapiens (Human), UniProt Q15858). Description: Selectivity test for Nav ion channel subtypes: NaV1.7 (CHO cells, patch clamp). It is filed as cell-based. Particulars: 1 uM. As to the method: as §1, §2, §3, §4, §5, §6, §7, §8
The target in the next data set is NaV1.1 (Homo sapiens (Human), UniProt P35498). Description: Selectivity test for Nav ion channel subtypes: NaV1.1 (HEK293, patch clamp). Particulars: 1 uM; HEK293 cells. It is filed as cell-based. As to the method:
as §1, §2, §3, §4, §5, §6, §7, §8

The target of the next data set is NaV1.3 (Homo sapiens (Human), UniProt Q9NY46). Description: Selectivity test for Nav ion channel subtypes: NaV1.3 (HEK293, patch clamp). The format is cell-based. Particulars: 1 uM; HEK293 cells. How it is done:
as §1, §2, §3, §4, §5, §6, §7, §8

Another data set addresses hERG ion channels (Homo sapiens (Human), UniProt Q12809). Description: Inhibition activity test on hERG ion channels in HEK293 cells (cardiac safety, patch clamp). As to the method: This experiment is used as a cardiac safety test of compound.
The reagents are purchased from Sigma (St. Louis, MO) except NaOH and KOH for acid-base titration. Final concentrations of tested solutions are prepared on the testing day and dissolved in extracellular fluid. […] All the test solutions and the control solutions contain 0.3% DMSO. Intracellular fluid (mM) contains: K Aspartate, 130; MgCl2, 5; EGTA 5; HEPES, 10; Tris-ATP 4; pH 7.2 (KOH titration).
Cells: all experiments is performed at room temperature. Each cell itself is taken as the corresponding control.
Compounds are all perfused using a perfusion system that utilizes the gravity. At least two cells are tested per concentration. After current stabilization (or 5 minutes), the change in current magnitude before and after the use of the compound is compared to calculate the blocking effect of the compound.
The method of operation is the same as that of the test compound.
Electrophysiology: Transfer the Cells to the perfusion tank and perfuse with extracellular fluid. The intracellular fluid (mM) contains: K Aspartate, 130; MgCl2, 5; EGTA 5; HEPES, 10; Tris-ATP 4; pH 7.2 (KOH titration). The intracellular fluid is stored in small quantities in portions in a −80° C. refrigerator, and melt on the day of the experiment. Electrodes are drawn with PC-10 (Narishige, Japan). Recording is performed with whole-cell diaphragm clamp. Noise is filtered with one-fifth of the sampling frequency.
This process is repeated every 20 seconds. The hERG tail current is the pure hERG current. The maximum tail current triggered by the second square wave is detected, and when the current is stabilized, the test compound is perfused. The strength of the block is calculated when the response is stabilized.
For orientation: hERG is a cardiac potassium channel; its block is linked to QT prolongation.

Another data set deals with NaV1.5 (Homo sapiens (Human), UniProt Q14524). The data set is described as follows: Selectivity test for Nav ion channel subtypes: NaV1.5 (HEK293, patch clamp). It is filed as cell-based. Particulars: 1 uM; HEK293 cells. As to the method:
as §1, §2, §3, §4, §5, §6, §7, §8

Data set [1] is described as follows: In vivo pharmacokinetic testing of compounds in rats. As to conditions: male SD rats, single oral dose 100 mg/kg, plasma, VX-150 dosed as prodrug, active form analysed. How it is done: Test Case 4: In Vivo Pharmacokinetic Testing of Compounds in Rats
All SD rats in the test are male and are purchased from Shanghai Sippe-Bk Lab Animal Co., Ltd. Each compound is administered orally (100 mg/kg, 3 rats per group) at single dose to SD rats for pharmacokinetic study. The solutions are prepared on the same day of administration, e.g., the tested compound is suspended in 5% DMSO+95% saline, get vortexed for 2 min, and sonicated for 5 min to prepare a drug delivery system. The animals are fasted for 10-14 hours before oral administration, and resumed food 4 hours after administration. After oral administration by gavage in SD rats, pharmacokinetic samples are collected from jugular vein at the following time points: 0, 15 min, 30 min, 1 h, 2 h, 4 h, 6 h, 8 h and 24 h. Three whole blood samples are collected at each time point in a volume of about 0.2 mL and anticoagulated using sodium heparin. Blood samples are placed on ice immediately after collection and plasma is separated by centrifugation within 1 h (centrifugation conditions: 6800 rpm, 6 min, 2-8° C.). The collected plasma is stored in a −80° C. refrigerator prior to analysis.
In pharmacokinetic tests in rat, the control compound VX-150 is a prodrug (WO2015089361, compound 9), after administration, analysis is performed to test its active form (WO2014120808, compound 10). The aforementioned in vitro pharmacological tests are performed using the active ingredient (WO2014120808, compound 10).

The next data set has as its target human NaV1.8 ion channel (Homo sapiens (Human), UniProt Q9Y5Y9). The data set is described as follows: Compound inhibition activity on human NaV1.8 ion channel in HEK293 cells (whole-cell patch clamp). The format is cell-based. Particulars: 100 nm concentration, HEK293 cells, resting protocol.
In a further data set the target is NaV1.4 (Homo sapiens (Human), UniProt P35499). Description: Selectivity test for Nav ion channel subtypes: NaV1.4 (HEK293, patch clamp). It is filed as cell-based. Particulars: 1 uM; HEK293 cells. As to the method:
as §1, §2, §3, §4, §5, §6, §7, §8

Where [2] appears, read: read-out: Inhibition ratio of compounds against Nav1.8 (Activity of inhibition).
The mark [3] stands for this setting: read-out: Inhibition ratio of Nav1.8 (Activity of inhibition).

Sequence of NaV1.5 (Q14524 whole entry): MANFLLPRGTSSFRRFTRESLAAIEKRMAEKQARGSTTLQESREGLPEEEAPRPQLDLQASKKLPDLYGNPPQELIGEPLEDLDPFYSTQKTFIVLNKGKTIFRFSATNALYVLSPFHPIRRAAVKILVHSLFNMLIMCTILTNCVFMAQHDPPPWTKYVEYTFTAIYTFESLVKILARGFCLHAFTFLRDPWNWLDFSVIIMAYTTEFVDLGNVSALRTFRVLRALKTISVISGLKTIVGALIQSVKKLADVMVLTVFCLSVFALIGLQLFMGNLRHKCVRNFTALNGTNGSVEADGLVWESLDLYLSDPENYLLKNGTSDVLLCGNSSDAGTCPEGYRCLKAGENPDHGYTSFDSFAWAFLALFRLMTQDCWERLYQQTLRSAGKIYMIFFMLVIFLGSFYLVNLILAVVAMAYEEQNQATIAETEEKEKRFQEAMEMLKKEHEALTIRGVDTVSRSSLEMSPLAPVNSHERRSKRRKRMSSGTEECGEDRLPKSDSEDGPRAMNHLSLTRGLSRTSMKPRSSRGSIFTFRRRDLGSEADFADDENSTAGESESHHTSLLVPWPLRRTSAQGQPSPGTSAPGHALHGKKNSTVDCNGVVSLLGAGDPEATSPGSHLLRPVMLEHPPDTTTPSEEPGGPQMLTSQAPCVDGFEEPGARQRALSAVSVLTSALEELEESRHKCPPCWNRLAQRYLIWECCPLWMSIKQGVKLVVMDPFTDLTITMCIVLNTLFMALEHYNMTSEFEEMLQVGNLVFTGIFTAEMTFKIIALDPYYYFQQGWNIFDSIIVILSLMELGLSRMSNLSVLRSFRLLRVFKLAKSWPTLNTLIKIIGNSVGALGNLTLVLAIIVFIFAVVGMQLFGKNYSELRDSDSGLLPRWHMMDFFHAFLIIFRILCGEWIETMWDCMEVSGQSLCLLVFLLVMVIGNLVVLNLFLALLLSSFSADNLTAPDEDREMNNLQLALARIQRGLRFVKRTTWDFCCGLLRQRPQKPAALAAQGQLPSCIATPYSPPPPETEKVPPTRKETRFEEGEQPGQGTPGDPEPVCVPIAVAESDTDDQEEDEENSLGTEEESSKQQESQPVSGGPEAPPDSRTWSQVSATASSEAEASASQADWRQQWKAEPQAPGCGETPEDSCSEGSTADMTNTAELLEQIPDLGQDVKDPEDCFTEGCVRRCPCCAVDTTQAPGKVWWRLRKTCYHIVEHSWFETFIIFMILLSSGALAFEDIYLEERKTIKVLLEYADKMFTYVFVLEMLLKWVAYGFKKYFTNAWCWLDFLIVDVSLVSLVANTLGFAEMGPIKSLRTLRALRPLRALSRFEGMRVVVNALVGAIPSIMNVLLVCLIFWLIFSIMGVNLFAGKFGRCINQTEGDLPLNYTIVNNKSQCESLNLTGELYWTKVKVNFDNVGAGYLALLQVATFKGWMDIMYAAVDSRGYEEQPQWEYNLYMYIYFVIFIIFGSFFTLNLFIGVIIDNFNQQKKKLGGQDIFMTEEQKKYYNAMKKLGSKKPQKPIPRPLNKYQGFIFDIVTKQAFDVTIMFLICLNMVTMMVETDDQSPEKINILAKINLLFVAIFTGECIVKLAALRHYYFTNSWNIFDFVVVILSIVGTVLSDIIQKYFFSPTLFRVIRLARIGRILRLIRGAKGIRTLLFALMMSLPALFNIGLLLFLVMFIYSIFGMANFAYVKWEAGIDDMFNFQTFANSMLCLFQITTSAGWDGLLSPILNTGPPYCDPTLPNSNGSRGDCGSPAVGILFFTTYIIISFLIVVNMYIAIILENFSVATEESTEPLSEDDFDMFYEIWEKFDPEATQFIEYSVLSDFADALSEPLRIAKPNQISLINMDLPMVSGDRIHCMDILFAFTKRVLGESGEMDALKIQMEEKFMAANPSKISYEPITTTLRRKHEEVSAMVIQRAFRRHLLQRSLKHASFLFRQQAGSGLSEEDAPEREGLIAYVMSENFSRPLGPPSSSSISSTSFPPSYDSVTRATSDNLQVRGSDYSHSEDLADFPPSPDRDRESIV
Sequence of NaV1.7 (Q15858 whole entry): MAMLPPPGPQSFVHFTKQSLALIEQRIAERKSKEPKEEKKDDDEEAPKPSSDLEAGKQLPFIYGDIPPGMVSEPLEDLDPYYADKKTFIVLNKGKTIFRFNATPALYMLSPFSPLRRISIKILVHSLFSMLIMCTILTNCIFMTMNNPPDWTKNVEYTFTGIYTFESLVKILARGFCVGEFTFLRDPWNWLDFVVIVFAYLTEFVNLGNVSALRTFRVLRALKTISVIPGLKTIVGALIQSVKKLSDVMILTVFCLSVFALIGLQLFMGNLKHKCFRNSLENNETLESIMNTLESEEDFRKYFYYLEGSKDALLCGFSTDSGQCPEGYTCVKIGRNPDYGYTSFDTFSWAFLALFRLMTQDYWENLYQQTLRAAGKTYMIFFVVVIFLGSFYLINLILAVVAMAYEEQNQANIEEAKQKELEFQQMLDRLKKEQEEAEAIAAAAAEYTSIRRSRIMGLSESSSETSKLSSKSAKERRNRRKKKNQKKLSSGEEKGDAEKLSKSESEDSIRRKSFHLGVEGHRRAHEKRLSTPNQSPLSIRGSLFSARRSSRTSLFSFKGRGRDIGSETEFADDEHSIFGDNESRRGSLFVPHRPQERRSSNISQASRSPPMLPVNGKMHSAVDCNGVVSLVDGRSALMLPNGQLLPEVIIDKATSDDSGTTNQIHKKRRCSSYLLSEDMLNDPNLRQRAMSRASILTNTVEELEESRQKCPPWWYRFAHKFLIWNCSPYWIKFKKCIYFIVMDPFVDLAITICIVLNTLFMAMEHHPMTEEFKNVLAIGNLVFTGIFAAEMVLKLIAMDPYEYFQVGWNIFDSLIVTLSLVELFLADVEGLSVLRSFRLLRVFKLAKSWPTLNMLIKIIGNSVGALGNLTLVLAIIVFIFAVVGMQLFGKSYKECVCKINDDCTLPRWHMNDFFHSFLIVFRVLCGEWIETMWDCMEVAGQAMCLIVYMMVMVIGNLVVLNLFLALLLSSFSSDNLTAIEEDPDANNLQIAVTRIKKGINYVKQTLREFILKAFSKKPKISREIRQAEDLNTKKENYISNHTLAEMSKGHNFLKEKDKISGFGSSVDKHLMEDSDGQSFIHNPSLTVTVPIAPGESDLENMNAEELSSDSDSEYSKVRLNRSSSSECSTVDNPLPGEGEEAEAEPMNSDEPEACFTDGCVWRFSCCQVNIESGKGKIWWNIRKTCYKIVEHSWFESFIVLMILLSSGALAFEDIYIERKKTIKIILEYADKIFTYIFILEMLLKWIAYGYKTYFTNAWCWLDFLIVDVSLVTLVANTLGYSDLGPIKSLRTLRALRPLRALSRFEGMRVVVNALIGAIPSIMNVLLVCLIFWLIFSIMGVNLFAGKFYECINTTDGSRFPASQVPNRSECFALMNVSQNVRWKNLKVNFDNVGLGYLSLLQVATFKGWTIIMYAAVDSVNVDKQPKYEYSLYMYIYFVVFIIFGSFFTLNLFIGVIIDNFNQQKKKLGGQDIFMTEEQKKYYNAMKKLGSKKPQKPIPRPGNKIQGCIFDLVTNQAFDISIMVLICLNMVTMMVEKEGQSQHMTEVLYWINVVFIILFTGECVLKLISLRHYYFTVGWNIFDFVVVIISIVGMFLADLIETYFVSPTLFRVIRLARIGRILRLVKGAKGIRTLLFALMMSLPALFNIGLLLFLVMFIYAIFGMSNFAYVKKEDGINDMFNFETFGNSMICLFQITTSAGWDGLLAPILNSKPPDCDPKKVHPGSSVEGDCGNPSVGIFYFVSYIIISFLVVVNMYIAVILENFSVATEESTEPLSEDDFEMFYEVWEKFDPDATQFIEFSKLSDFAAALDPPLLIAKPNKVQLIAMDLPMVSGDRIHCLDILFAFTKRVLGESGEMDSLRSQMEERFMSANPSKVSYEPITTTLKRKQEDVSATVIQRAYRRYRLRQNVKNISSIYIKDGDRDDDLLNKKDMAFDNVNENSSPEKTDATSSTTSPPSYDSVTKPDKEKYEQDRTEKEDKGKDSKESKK
Sequence of hERG ion channels (Q12809 whole entry): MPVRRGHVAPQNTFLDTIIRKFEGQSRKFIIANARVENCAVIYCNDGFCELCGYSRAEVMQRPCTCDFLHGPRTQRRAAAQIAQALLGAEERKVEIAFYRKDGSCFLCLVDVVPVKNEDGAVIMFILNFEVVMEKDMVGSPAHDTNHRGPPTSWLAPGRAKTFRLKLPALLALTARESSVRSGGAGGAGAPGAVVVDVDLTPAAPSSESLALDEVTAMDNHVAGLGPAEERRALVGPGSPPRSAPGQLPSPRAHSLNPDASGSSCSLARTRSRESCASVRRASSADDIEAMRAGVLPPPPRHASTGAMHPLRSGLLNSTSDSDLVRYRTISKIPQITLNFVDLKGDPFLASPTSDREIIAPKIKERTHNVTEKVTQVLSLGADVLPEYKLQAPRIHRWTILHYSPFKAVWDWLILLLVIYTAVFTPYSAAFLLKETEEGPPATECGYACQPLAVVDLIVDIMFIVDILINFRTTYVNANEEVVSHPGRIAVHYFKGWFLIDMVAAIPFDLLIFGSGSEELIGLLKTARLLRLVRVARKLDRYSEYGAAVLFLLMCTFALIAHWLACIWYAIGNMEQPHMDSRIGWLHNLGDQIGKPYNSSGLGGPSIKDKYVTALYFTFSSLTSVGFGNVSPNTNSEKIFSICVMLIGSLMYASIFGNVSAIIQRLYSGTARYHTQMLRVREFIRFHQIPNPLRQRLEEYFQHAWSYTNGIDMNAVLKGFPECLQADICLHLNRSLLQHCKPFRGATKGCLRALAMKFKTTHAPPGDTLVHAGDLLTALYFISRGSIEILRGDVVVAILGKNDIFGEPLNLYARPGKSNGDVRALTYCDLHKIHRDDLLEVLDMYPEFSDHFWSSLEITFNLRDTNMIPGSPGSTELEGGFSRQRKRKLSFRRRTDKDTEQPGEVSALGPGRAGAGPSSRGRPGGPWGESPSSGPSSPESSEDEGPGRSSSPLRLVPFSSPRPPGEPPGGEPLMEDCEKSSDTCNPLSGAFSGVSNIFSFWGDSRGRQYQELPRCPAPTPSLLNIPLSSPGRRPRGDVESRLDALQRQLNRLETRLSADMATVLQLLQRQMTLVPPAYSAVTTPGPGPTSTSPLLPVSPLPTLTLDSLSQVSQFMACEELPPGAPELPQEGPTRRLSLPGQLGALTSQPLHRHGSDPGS

As a reminder, the IC50 is the point on the concentration scale where inhibition reaches its midpoint. As usually defined, the half-life is the time needed for the level to fall by half in the phase considered. Usually AUC stands for concentration integrated over time. What is called Cmax is the maximum level reached in the sampled fluid or tissue. Regarding `Cc1cc(F)ccc1Oc1cc(C(F)(F)F)c(Cl)cc1C(=O)Nc1cnnc(OC[C@H](O)CO)c1` [Example 116], the “Inhibition ratio on Nav1.6” value on NaV1.6 was 2.6%. For the same compound, the “Inhibition ratio on Nav1.7” value on NaV1.7 is given as below 1%. In addition, the “Inhibition ratio on Nav1.1” value on NaV1.1 was 1.2%. Besides, at NaV1.3, the “Inhibition ratio on Nav1.3” value is on record as 3.7%. Also, it took 15.6 µM to reach half-maximal inhibition on hERG ion channels (human, pH 7.4) (IC50). Further, the “Inhibition ratio on Nav1.5” value at NaV1.5 is given as below 1%. In addition, the half-life in data set [1] (rat) is 8.7 h. Also, in data set [1] (rat, read-out: AUC), the AUC worked out at 42500 ng·h/mL. In addition, the Cmax in data set [1] (rat, read-out: Cmax) turned out to be 2570 ng/mL. Further, the inhibition at 0.1 µM at human NaV1.8 ion channel (setting [2]) fell in the range of 50 to 80%. For the same compound, the “Inhibition ratio on Nav1.4” value at NaV1.4 is below 1%.
Consider `Cc1cc(F)ccc1Oc1ccc(C(F)(F)F)cc1C(=O)Nc1ccc(F)c(C(N)CCO)c1` (centres unmarked) [Example 38], for which, at hERG ion channels (human, pH 7.4), the IC50 is 3 µM. In addition, the inhibition at 0.1 µM on human NaV1.8 ion channel (setting [3]) is 50 to 80%.
Take `Cc1cc(F)ccc1Oc1cc(C2CC2)c(C(F)(F)F)cc1C(=O)Nc1cnnc(OC[C@H](O)CO)c1` [Example 112]: in [1] (rat), the half-life was 6.3 h. Also, the AUC in [1] (rat, read-out: AUC) was 115000 ng·h/mL. For the same compound, the Cmax in data set [1] (rat, read-out: Cmax) was determined as 8270 ng/mL. Also, the inhibition at 0.1 µM at human NaV1.8 ion channel (setting [2]) lay in the range of 20 to 50%.
Regarding `Cc1cc(F)ccc1Oc1cc(C(F)(F)F)ccc1C(=O)Nc1ccn(COP(=O)(O)O)c(=O)c1` [VX-150, reference compound], the “Inhibition ratio on Nav1.6” value on NaV1.6 was 1.7%. Moreover, the “Inhibition ratio on Nav1.7” value on NaV1.7 is reported as 8.7%. In addition, the “Inhibition ratio on Nav1.1” value on NaV1.1 is reported as below 1%. Also, the “Inhibition ratio on Nav1.3” value at NaV1.3 was 2.2%. Also, the IC50 against hERG ion channels was determined as 7 µM. Also, the “Inhibition ratio on Nav1.5” value on NaV1.5 was 15.4%. Moreover, in data set [1], the AUC was 13859 ng·h/mL, the Cmax was found to be 1176 ng/mL and the T1/2 amounted to 2.2 h. Also, the “Inhibition ratio of Nav1.8 (Activity of inhibition)” value at human NaV1.8 ion channel is recorded as “B (80 > B >= 50)”. Moreover, at NaV1.4, the “Inhibition ratio on Nav1.4” value stood at 3.6%.
Take `Cc1cc(F)ccc1Oc1ccc(C(F)(F)F)cc1C(=O)Nc1ccc(F)c(C(N)CC(N)=O)c1` (centres unmarked) [Example 1, N-(3-(1,3-diamino-3-oxopropyl)-4-fluorophenyl)-2-(4-fluoro-2-methylphenoxy)-5-(trifluoromethyl) benzamide]: the IC50 on hERG ion channels (read-out: IC50 for hERG inhibited by compounds, HEK293 cells, hERG tail current) worked out at 3.2 µM.
Turning to `Cc1cc(F)ccc1Oc1cc(C(F)(F)F)c(Cl)cc1C(=O)Nc1ccc(F)c(OC[C@H](O)CNC(=O)CO)c1` [Example 117], the “Inhibition ratio on Nav1.6” value on NaV1.6 is given as below 1%. The “Inhibition ratio on Nav1.7” value on NaV1.7 is listed as below 1%. Further, the “Inhibition ratio on Nav1.1” value on NaV1.1 is recorded as below 1%. For the same compound, on NaV1.3, the “Inhibition ratio on Nav1.3” value worked out at 1.2%. The same compound came in with an IC50 on hERG ion channels of 6 µM. For the same compound, the “Inhibition ratio on Nav1.5” value on NaV1.5 was 5.0%. Besides, the half-life in data set [1] (rat) was 3 h. In addition, the AUC in data set [1] (rat, read-out: AUC) was found to be 114000 ng·h/mL. The Cmax in data set [1] (rat, read-out: Cmax) amounted to 9570 ng/mL. Moreover, the inhibition at 0.1 µM on human NaV1.8 ion channel (setting [2]) is above 80%. Further, the “Inhibition ratio on Nav1.4” value on NaV1.4 was below 1%.
`Cc1cc(F)ccc1Oc1ccc(C(F)(F)F)cc1C(=O)Nc1ccc(F)c(C(N)C(N)=O)c1` (centres unmarked) [Example 36]: half-maximal inhibition against hERG ion channels (human, pH 7.4) (IC50) was put at 10.5 µM. The inhibition at 0.1 µM on human NaV1.8 ion channel (setting [3]) is above 80%.
Turning to `Cc1cc(F)ccc1Oc1cc(C2CC2)c(C(F)(F)F)cc1C(=O)Nc1ccnc(OC[C@H](O)CO)c1` [Example 104], on NaV1.6, the “Inhibition ratio on Nav1.6” value is 2.8%. Further, the “Inhibition ratio on Nav1.7” value at NaV1.7 worked out at 1.3%. In addition, the “Inhibition ratio on Nav1.1” value at NaV1.1 was determined as 1.5%. Also, the “Inhibition ratio on Nav1.3” value on NaV1.3 was determined as 4.3%. Moreover, 3.8 µM corresponded to half-maximal inhibition against hERG ion channels (human, pH 7.4) (IC50). Besides, the “Inhibition ratio on Nav1.5” value at NaV1.5 is reported as below 1%. Further, the half-life in data set [1] (rat) was 5.1 h. Moreover, the AUC in data set [1] (rat, read-out: AUC) turned out to be 58000 ng·h/mL. Besides, in data set [1] (rat, read-out: Cmax), the Cmax is 5140 ng/mL. For the same compound, the inhibition at 0.1 µM at human NaV1.8 ion channel (setting [2]) is above 80%. Moreover, the “Inhibition ratio on Nav1.4” value on NaV1.4 is listed as below 1%.
